Patent US10385019B2, “Inhibitors of EGFR and methods of use thereof” (Dana-Farber Cancer Institute, Inc., priority 2015, dated 2019)

Target: EGFR T790M/L858R Ba/F3 cell line (Homo sapiens, UniProt P00533, T790M/L858R, cells depend on it)
Assay: Ba/F3 cell proliferation model
Format: cell-based, murine
Conditions: combined with cetuximab (% cetuximab, 1.0 μM drug concentration with 1.0 μg/mL cetuximab)
Excerpt: The selectivity between wild-type EGFR and EGFR containing one or more mutations as described herein can also be measured using cellular proliferation assays where cell proliferation is dependent on kinase activity. For example, murine Ba/F3 cells transfected with a suitable version of wild-type EGFR (such as VIII; containing a WT EGFR kinase domain), or Ba/F3 cells transfected with L858R/T790M, Del/T790M/L718Q, L858R/T790M/L718Q, L858R/T790M/C797S, Del/T790M/C797S, L858R/T790M/I941R, or Exon 19 deletion/T790M can be used.
Cell lines are plated in media. The compounds of the present disclosure are then serially diluted and transferred to the cells. Cell viability is measured via a luminescent readout. Data is analyzed by non-linear regression curve-fitting. […]
The EGFR mutant L858R, Del E746_A750, L858R/T790M, DelE746_A750/T790M, L858R/T790M/C797S and Del/T790M/C797S Ba/F3 cells have been previously described (Zhou, W., Ercan, D., Chen, L., Yun, C. H., Li, D., Capelletti, M., Cortot, A. B., Chirieac, L., Iacob, R. E., Padera, R., et al. “Novel mutant-selective EGFR kinase inhibitors against EGFR T790M,” Nature 462, (2009), 1070-1074). All cell lines were maintained in RPMI 1640 (Cellgro; Mediatech Inc., Herndon, Calif.) supplemented with 10% FBS 100 units/mL penicillin, 100 units/mL streptomycin, and 2 mM glutamine. L858R cells were maintained in ACL-4 media (Invitrogen, Carlsbad, Calif.) supplemented with 5% FBS, 100 units/mL penicillin, 100 units/mL streptomycin, and 2 mM glutamine. The EGFR I941R mutation was introduced via site directed mutagenesis using the Quick Change Site-Directed Mutagenesis kit (Stratagene; La Jolla, Calif.) according to the manufacturer's instructions. All constructs were confirmed by DNA sequencing. The constructs were shuttled into the retroviral vector JP 1540 using the BD Creator™ System (BD Biosciences). Ba/F3 cells were infected with retrovirus and according to standard protocols, as described previously (Zhou et al, Nature 2009). Stable clones were obtained by selection in puromycin (2 μg/ml).
Growth and inhibition of growth was assessed by MTS assay and was performed according to previously established methods (Zhou et al., Nature 2009). The MTS assay is a colorimetric method for determining the number of viable cells that is based on the bioreduction of MTS by cells to a formazan product that is soluble in cell culture medium and can be detected spectrophotometrically. Ba/F3 cells of different EGFR genotypes were exposed to treatment for 72 hours and the number of cells used per experiment determined empirically and has been previously established (Zhou et al., Nature 2009). All experimental points were set up in six wells and all experiments were repeated at least three times. […] The curves were fitted using a non-linear regression model with a sigmoidal dose response.
Inhibition data of an EGFR T790M/L858R Ba/F3 cell line.

Sequence of EGFR T790M/L858R Ba/F3 cell line (P00533 whole entry T790M/L858R): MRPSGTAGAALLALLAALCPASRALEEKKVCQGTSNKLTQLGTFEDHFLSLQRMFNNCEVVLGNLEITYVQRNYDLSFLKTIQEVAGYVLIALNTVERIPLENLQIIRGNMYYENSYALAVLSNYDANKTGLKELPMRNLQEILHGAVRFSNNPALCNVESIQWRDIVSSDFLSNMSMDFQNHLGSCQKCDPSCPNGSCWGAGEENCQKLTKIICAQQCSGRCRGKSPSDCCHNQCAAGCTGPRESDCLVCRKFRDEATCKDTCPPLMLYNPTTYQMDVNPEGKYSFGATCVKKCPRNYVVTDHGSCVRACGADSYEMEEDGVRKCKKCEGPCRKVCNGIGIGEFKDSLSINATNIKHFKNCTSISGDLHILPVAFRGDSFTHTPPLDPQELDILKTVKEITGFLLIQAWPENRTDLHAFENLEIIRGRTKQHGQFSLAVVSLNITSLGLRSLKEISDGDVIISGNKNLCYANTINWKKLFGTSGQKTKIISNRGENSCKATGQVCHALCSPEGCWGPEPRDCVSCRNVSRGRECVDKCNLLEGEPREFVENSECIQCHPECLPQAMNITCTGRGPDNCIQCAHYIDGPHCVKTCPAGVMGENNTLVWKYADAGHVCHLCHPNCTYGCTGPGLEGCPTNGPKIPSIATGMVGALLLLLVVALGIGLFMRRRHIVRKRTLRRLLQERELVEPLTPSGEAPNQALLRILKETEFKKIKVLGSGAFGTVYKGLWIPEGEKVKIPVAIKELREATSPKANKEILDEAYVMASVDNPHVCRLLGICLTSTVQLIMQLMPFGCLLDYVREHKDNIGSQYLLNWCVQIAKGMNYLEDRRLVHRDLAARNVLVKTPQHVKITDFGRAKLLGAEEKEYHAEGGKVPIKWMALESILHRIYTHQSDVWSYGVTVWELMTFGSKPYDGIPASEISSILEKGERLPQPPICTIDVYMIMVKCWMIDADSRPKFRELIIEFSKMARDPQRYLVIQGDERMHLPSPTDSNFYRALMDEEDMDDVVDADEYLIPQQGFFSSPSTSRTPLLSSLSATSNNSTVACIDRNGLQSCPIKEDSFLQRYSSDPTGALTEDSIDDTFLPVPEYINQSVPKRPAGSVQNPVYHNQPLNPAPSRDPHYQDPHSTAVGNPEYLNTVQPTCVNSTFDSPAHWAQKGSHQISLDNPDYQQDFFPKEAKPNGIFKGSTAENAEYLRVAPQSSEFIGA

O=C(NCCCN1CCOCC1)c1csc(NC(=O)[C@@H](c2ccccc2)N2Cc3ccccc3C2=O)n1 [Compound I-14, (R)-N-(3-morpholinopropyl)-2-(2-(1-oxoisoindolin-2-yl)-2-phenylacetamido)thiazole-4-carboxamide]
Activity (% inhibition): A (a % inhibition of about 75%)

COc1ccc(-c2ccc3c(c2)C(=O)N([C@@H](C(=O)Nc2nccs2)c2ccccc2)C3)c(OC)c1 [Compound I-80, (R)-2-(6-(2,4-dimethoxyphenyl)-1-oxoisoindolin-2-yl)-2-phenyl-N-(thiazol-2-yl)acetamide]
Activity (% inhibition): C (a % inhibition of between about 25% to about 50%)

O=C(Nc1nc(C(=O)N2CCOCC2)cs1)[C@@H](c1ccccc1)N1Cc2ccccc2C1=O [Compound I-22, (R)-N-(4-(morpholine-4-carbonyl)thiazol-2-yl)-2-(1-oxoisoindolin-2-yl)-2-phenylacetamide]
Activity (% inhibition): A (a % inhibition of about 75%)

O=C(Nc1nccs1)[C@@H](c1ccccc1)N1Cc2cc(Nc3ccc(OCc4ccccc4)cc3)ccc2C1=O [Compound I-96, (R)-2-(5-((4-(benzyloxy)phenyl)amino)-1-oxoisoindolin-2-yl)-2-phenyl-N-(thiazol-2-yl)acetamide]
Activity (% inhibition): A (a % inhibition of about 75%)

O=C(Nc1ncco1)[C@@H](c1ccccc1)N1Cc2ccccc2C1=O [Compound I-19, (R)-N-(oxazol-2-yl)-2-(1-oxoisoindolin-2-yl)-2-phenylacetamide]
Activity (% inhibition): A (a % inhibition of about 75%)

O=C(Nc1nccs1)[C@@H](c1ccccc1)N1Cc2ccc(Nc3ccccc3)cc2C1=O [Compound I-98, (R)-2-(1-oxo-6-(phenylamino)isoindolin-2-yl)-2-phenyl-N-(thiazol-2-yl)acetamide]
Activity (% inhibition): C (a % inhibition of between about 25% to about 50%)

O=C(Nc1nccs1)[C@@H](c1ccccc1)N1Cc2ccc(-c3cccc(C(=O)N4CCOCC4)c3)cc2C1=O [Compound I-92, (R)-2-(6-(3-(morpholine-4-carbonyl)phenyl)-1-oxoisoindolin-2-yl)-2-phenyl-N-(thiazol-2-yl)acetamide]
Activity (% inhibition): C (a % inhibition of between about 25% to about 50%)

CN1CCN(c2ccc(-c3ccc4c(c3)CN([C@@H](C(=O)Nc3nccs3)c3ccccc3)C4=O)cc2)CC1 [Compound I-102, (R)-2-(5-(4-(4-methylpiperazin-1-yl)phenyl)-1-oxoisoindolin-2-yl)-2-phenyl-N-(thiazol-2-yl)acetamide]
Activity (% inhibition): B (a % inhibition of between about 50% to about 75%)

O=C(Nc1nccs1)[C@@H](c1ccccc1)N1Cc2ccc(-c3ccccn3)cc2C1=O [Compound I-108, (R)-2-(1-oxo-6-(pyridin-2-yl)isoindolin-2-yl)-2-phenyl-N-(thiazol-2-yl)acetamide]
Activity (% inhibition): C (a % inhibition of between about 25% to about 50%)

C[C@H](NC(=O)[C@H](c1ccccc1)N1Cc2ccccc2C1=O)c1ccccc1 [Compound I-2, (S)-2-(1-oxoisoindolin-2-yl)-2-phenyl-N-((S)-1-phenylethyl)acetamide]
Activity (% inhibition): A (a % inhibition of about 75%)

C[C@H](C(=O)Nc1nccs1)N1Cc2ccc(-c3ccc(N4CCNCC4)cc3)cc2C1=O [Compound I-118, (R)-2-(1-oxo-6-(4-(piperazin-1-yl)phenyl)isoindolin-2-yl)-N-(thiazol-2-yl)propanamide]
Activity (% inhibition): A (a % inhibition of about 75%)

O=C(Nc1nccs1)[C@@H](c1ccccc1)N1Cc2ccc(-c3ccc4cc[nH]c4c3)cc2C1=O [Compound I-67, (R)-2-(6-(1H-indol-6-yl)-1-oxoisoindolin-2-yl)-2-phenyl-N-(thiazol-2-yl)acetamide]
Activity (% inhibition): C (a % inhibition of between about 25% to about 50%)

CN(C(=O)[C@@H](c1ccccc1)N1Cc2ccccc2C1=O)c1nccs1 [Compound I-58, (R)-N-methyl-2-(1-oxoisoindolin-2-yl)-2-phenyl-N-(thiazol-2-yl)acetamide]
Activity (% inhibition): B (a % inhibition of between about 50% to about 75%)

Cc1csc(NC(=O)[C@@H](c2ccccc2)N2Cc3ccc(-c4ccc5[nH]ccc5c4)cc3C2=O)n1 [Compound I-131, (R)-2-(6-(1H-indol-5-yl)-1-oxoisoindolin-2-yl)-N-(4-methylthiazol-2-yl)-2-phenylacetamide]
Activity (% inhibition): A (a % inhibition of about 75%)

O=C(Nc1ncco1)[C@@H](c1ccccc1)N1Cc2ccc(-c3ccc4[nH]ccc4c3)cc2C1=O [Compound I-129, (R)-2-(6-(1H-indol-5-yl)-1-oxoisoindolin-2-yl)-N-(oxazol-2-yl)-2-phenylacetamide]
Activity (% inhibition): B (a % inhibition of between about 50% to about 75%)

CN(C)CCCCNC(=O)c1ccc(-c2ccc3c(c2)C(=O)N([C@@H](C(=O)Nc2nccs2)c2ccccc2)C3)cc1 [Compound I-82, (R)-N-(4-(dimethylamino)butyl)-4-(3-oxo-2-(2-oxo-1-phenyl-2-(thiazol-2-ylamino)ethyl)isoindolin-5-yl)benzamide]
Activity (% inhibition): C (a % inhibition of between about 25% to about 50%)

O=C(Nc1nc2cccnc2s1)[C@@H](c1ccccc1)N1Cc2ccccc2C1=O [Compound I-32, (R)-2-(1-oxoisoindolin-2-yl)-2-phenyl-N-(thiazolo [5,4-b]pyridin-2-yl)acetamide]
Activity (% inhibition): A (a % inhibition of about 75%)

O=C(Nc1nccs1)[C@@H](c1ccccc1)N1Cc2ccc(C3=CCCCC3)cc2C1=O [Compound I-86, (R)-2-(6-(cyclohex-1-en-1-yl)-1-oxoisoindolin-2-yl)-2-phenyl-N-(thiazol-2-yl)acetamide]
Activity (% inhibition): B (a % inhibition of between about 50% to about 75%)

O=C(Nc1nccs1)[C@@H](c1ccccc1)N1Cc2cc(Nc3cccc(F)c3)ccc2C1=O [Compound I-97, (R)-2-(5-((3-fluorophenyl)amino)-1-oxoisoindolin-2-yl)-2-phenyl-N-(thiazol-2-yl)acetamide]
Activity (% inhibition): A (a % inhibition of about 75%)

O=C(Nc1nc(CCCN2CCOCC2)cs1)[C@@H](c1ccccc1)N1Cc2ccccc2C1=O [Compound I-43, (R)-N-(4-(3-morpholinopropyl)thiazol-2-yl)-2-(1-oxoisoindolin-2-yl)-2-phenylacetamide]
Activity (% inhibition): A (a % inhibition of about 75%)

O=C(Nc1cnsc1)[C@@H](c1ccccc1)N1Cc2ccc(-c3ccc4[nH]ccc4c3)cc2C1=O [Compound I-128, (R)-2-(6-(1H-indol-5-yl)-1-oxoisoindolin-2-yl)-N-(isothiazol-4-yl)-2-phenylacetamide]
Activity (% inhibition): A (a % inhibition of about 75%)

O=C(NCc1ccccc1)[C@@H](c1ccccc1)N1Cc2ccccc2C1=O [Compound I-87, (R)-N-benzyl-2-(1-oxoisoindolin-2-yl)-2-phenylacetamide]
Activity (% inhibition): A (a % inhibition of about 75%)

O=C(Nc1ccccc1Cl)[C@@H](c1ccccc1)N1Cc2ccccc2C1=O [Compound I-52, (R)-N-(2-chlorophenyl)-2-(1-oxoisoindolin-2-yl)-2-phenylacetamide]
Activity (% inhibition): A (a % inhibition of about 75%)

O=C(Nc1nccs1)[C@@H](c1ccccc1)N1Cc2cc(-c3ccc4[nH]ccc4c3)ccc2C1=O [Compound I-104, (R)-2-(5-(1H-indol-5-yl)-1-oxoisoindolin-2-yl)-2-phenyl-N-(thiazol-2-yl)acetamide]
Activity (% inhibition): C (a % inhibition of between about 25% to about 50%)

O=C(Nc1nccs1)[C@@H](c1ccccc1)N1Cc2cc(Nc3cccc(CN4CCCC4)c3)ccc2C1=O [Compound I-95, (R)-2-(1-oxo-5-((3-(pyrrolidin-1-ylmethyl)phenyl)amino)isoindolin-2-yl)-2-phenyl-N-(thiazol-2-yl)acetamide]
Activity (% inhibition): B (a % inhibition of between about 50% to about 75%)
